Assay results as given in US20090137527A1, “Compositions and methods for modulating immune function” (Resolvyx Pharmaceuticals, Inc., priority 2007, published 2009).
Where two headings read alike, the source gives them in different places.

Assays:
[1] = tested on: lymph node cells from collagen-induced arthritis rats; assay: Ex vivo cytokine production in lymph node cells from CIA rats treated with compound; set-up: species or system rat
Experimental: Female Lewis rats were anesthetized with 3-5% isoflurane and arthritis was induced by intradermal injection of 0.3 mL (100 μL at three different sites) of an emulsion […] 1.5 mg/mL of type II bovine collagen, CII (Elastin Products Inc., Cat# CM276), in incomplete Freund's adjuvant (IFA) at the base of the tail on day 0 and 6. Control rats were injected with an equal amount of IFA only.
were measured under two different treatment regimens. In the first (prophylactic) treatment regimen, Compound X was administered i.v., twice daily, at 0.3 mg/kg from day 0 to day 6 or 10. For ex vivo studies, animals were euthanized on day 6 after the last injection and their inguinal lymph nodes were harvested. […] For ex vivo studies, animals were euthanized on day 16 and inguinal lymph nodes were harvested. Venous blood samples were collected during the course of treatment. For CD3 activation, 96-well flat bottom plates were coated with anti-CD3 mAb (eBioscience, clone G4.18) 1 μg/mL. Plates were stored overnight at 4° C., and were subsequently rinsed with PBS once before use. Bovine Type II collagen for tissue culture was purchased from Chondrex (Cat# 2022) and was reconstituted according to the manufacturer's instructions. All data were processed and analyzed by t-test using GraphPad Prism software.
Treatment regimen one was used (n=3). Animals were treated with Compound X from day 0 to day 6, were sacrificed on day 6, and freshly harvested lymph nodes were pressed through a nylon strainer (BD Falcon Cat# 352340) to obtain a single cell suspension. Cells were washed and resuspended in RPMI 1640/10% FCS at 4×10^6/mL. In U-bottom 96-well plates, 100 μL or 4×10^5 cells and 100 μL of collagen at 25 or 50 μg/mL final concentrations were added. Plates were incubated in a 37° C., 5% CO2 incubator overnight. Supernatants were harvested, and rat cytokines were measured with Bioplex (BioRad).
In FIG. 2A, animals were given compound X from Day 0 to Day 6 (treatment regimen one). In FIG. 2B, animals were given compound X from day 8 to day 16 (treatment regimen two).
In FIG. 3A, animals were given compound X from Day 0 to Day 6 (treatment regimen one). In FIG. 3B, animals were given compound X from day 8 to day 16 (treatment regimen two). Freshly harvested lymph nodes were pressed through a nylon strainer (BD Falcon Cat# 352340) to obtain a single cell suspension. Cells were washed and resuspended in RPMI 1640/10% FCS at 4×10^6/mL. To anti-CD3 coated plates were added 4×10^5 cells per well and 100 μL RPMI 1640/10% FCS media. The plates were incubated in a 37° C., 5% CO2 incubator for three days (FIG. 3A) or overnight (FIG. 3B). Rat IL-17 was measured with a kit from Millipore (Cat# RCYTO-18K-01) following the manufacturer's instructions.

[2] = tested on: CD3-stimulated mouse splenocytes; assay: Ex vivo anti-CD3 stimulated cytokine production of mouse spleen cells after in vivo dosing; details: for inhibition at 0.03 mg/kg: Mus musculus, Splenocyte, iv, single i.v. 0.03 mg/kg, 30 min before harvest, vs vehicle
Experimental: BALB/c female mice (n=5), 6-8 weeks old, were given either i.v. injection of Compound X or vehicle once a day for 5 days or a single i.v. injection of Compound X or vehicle. Thirty minutes after the last injection, spleens were removed under sterile conditions, and a single cell suspension was made by pressing through a nylon strainer (BD Falcon Cat# 352340). Cells were spun at 1500 rpm for 10 minutes, and the liquid was aspirated. RBC was lysed by adding 3 mL of ACK solution (Lonza Cat# 10-458E) for 5 minutes. The tube was filled with RPMI media and spun. Cells were resuspended in RPMI/10% FCS. To plates pre-coated with anti-CD3 (per the procedure described below) were added 4×10^5 cells per well. Supernatants were harvested after 18 hours of culture. Cytokine levels were measured by Bioplex (Biorad), according to manufacturer's instructions.
For CD3 stimulation, anti-mouse CD3 mAb (BD Pharmingen clone 145-2C11) was used at 0.2 μg/mL in PBS to coat flat bottom 96-well plate at 4° C. overnight. Plates were rinsed twice with PBS before use.
To measure this effect, mice were given daily i.v. injections of 0.3 mg/kg of Compound X for five days. Spleen cells were then harvested and stimulated with anti-CD3 antibody in vitro overnight.
Mice were given a single i.v. injection of 0.03 mg/kg Compound X 30 minutes before spleen cells were harvested. T cells were isolated by magnetic beads, and the purity of T cells was >95% as measured by flow cytometry. Spleen cells or purified T cells were stimulated with 0.2 μg/mL anti-CD3 overnight, and cytokine levels were measured by Bioplex.
The ability of in vivo treatment with Compound X to inhibit anti-CD3 stimulated cytokine production was measured by treating mice (n=5) with a single i.v. injection of 0.03 mg/kg of Compound X thirty minutes before spleens were harvested. Spleen cells were stimulated with anti-CD3 mAb overnight, and cytokine levels were measured by Bioplex. The resulting percent inhibition of cytokine production by total spleen cells as compared with vehicle treated animals is shown in Table 2. These studies indicate that Compound X, when dosed to naïve animals, inhibited ex vivo CD3-stimulated cytokine production in splenocytes by approximately 35-60%.

[3] = two treatment regimens: day 0 to day 6, or day 8 to day 16, 0.3 mg/kg i.v. twice daily

CC[C@@H](O)/C=C/C=C\C[C@@H](O)/C=C/C=C/C=C\[C@@H](O)CCCC(=O)O [Compound X]
ex vivo IFN-γ and TNFα production in lymph node cells ([1]; 0.3 mg/kg i.v. twice daily day 0 to day 6, collagen 25 or 50 μg/mL overnight): inhibited
reduction of collagen- or CD3-induced IFNγ, TNFα and IL-17 secretion from draining lymph node cells ([1]; treated animals compared to controls): 60-90%
ex vivo anti-CD3 mAb-induced IL-17 production in lymph node cells [1, 3]: inhibited
ex vivo collagen-induced IFN-γ production in lymph node cells [1, 3]: inhibited
inhibition at 0.03 mg/kg ([2]; anti-CD3 overnight, read-out: % Inhibition of IL-6 production by total spleen cells): 55.2%
inhibition at 0.03 mg/kg ([2]; anti-CD3 overnight, read-out: % Inhibition of IL-13 production by total spleen cells): 68.3%
inhibition at 0.03 mg/kg ([2]; anti-CD3 overnight, read-out: % Inhibition of INFγ production by total spleen cells): 78.5%
inhibition at 0.03 mg/kg ([2]; anti-CD3 overnight, read-out: % Inhibition of Il-2 production by total spleen cells): 62.6%
inhibition at 0.03 mg/kg ([2]; anti-CD3 overnight, read-out: % Inhibition of Il-4 production by total spleen cells): 64.9%
inhibition at 0.03 mg/kg ([2]; anti-CD3 overnight, read-out: % Inhibition of MIP1α production by total spleen cells): 42.7%
inhibition at 0.03 mg/kg ([2]; anti-CD3 overnight, read-out: % Inhibition of MIP1β production by total spleen cells): 46.1%
inhibition at 0.03 mg/kg ([2]; anti-CD3 overnight, read-out: % Inhibition of RANTES production by total spleen cells): 37.2%
inhibition at 0.03 mg/kg ([2]; anti-CD3 overnight, read-out: % Inhibition of TNFα production by total spleen cells): 50.7%
cytokine release of CD3-stimulated mouse splenocytes ([2]; daily i.v. 0.3 mg/kg for five days, anti-CD3 overnight): inhibits
inhibition of ex vivo CD3-stimulated cytokine production in splenocytes ([2]; dosed to naïve animals, summary of studies): 35-60%
CD3-induced cytokine release, spleen cells or purified T cells ([2]; single i.v. 0.03 mg/kg 30 minutes before harvest, 0.2 μg/mL anti-CD3 overnight): reduction
